Measurements taken from ChEMBL document CHEMBL4219142, “Discovery of potent DOT1L inhibitors by AlphaLISA based High Throughput Screening assay” (Bioorg Med Chem, 2018).

Key:
MV4-11 [1] = assay: Cell cycle arrest in human MV411 cells assessed as accumulation at S phase at 0.625 uM after 24 hrs by propidium iodide staining based flow cytometric analysis (reference value: 30.25 to 47.5%); type: functional
MV4-11 [2] = assay: Cell cycle arrest in human MV411 cells assessed as accumulation at G2 phase at 0.3125 uM after 24 hrs by propidium iodide staining based flow cytometric analysis (reference value: 4.19 to 11.88%); type: functional
MV4-11 [3] = assay: Cell cycle arrest in human MV411 cells assessed as accumulation at G1 phase at 0.3125 uM after 24 hrs by propidium iodide staining based flow cytometric analysis (reference value: 40.62 to 65.56%); type: functional
MV4-11 [4] = assay: Cell cycle arrest in human MV411 cells assessed as accumulation at G1 phase at 1.25 uM after 24 hrs by propidium iodide staining based flow cytometric analysis (reference value: 40.62 to 65.56%); type: functional
MV4-11 [5] = assay: Cell cycle arrest in human MV411 cells assessed as accumulation at S phase at 1.25 uM after 24 hrs by propidium iodide staining based flow cytometric analysis (reference value: 30.25 to 47.5%); type: functional
MV4-11 [6] = assay: Induction of apoptosis in human MV411 cells assessed as late apoptotic cells at 0.625 uM after 48 hrs by Annexin-V-FITC/propidium iodide staining based flow cytometric method (reference value: 4.38 to 4.63%); type: functional
MV4-11 [7] = assay: Induction of apoptosis in human MV411 cells assessed as viable cells at 1.25 uM after 48 hrs by Annexin-V-FITC/propidium iodide staining based flow cytometric method (reference value: 88.5 to 94.5%); type: functional; settings: MV4-11, 48 h, read-out: Activity
[8] = molecular target: T1, Histone-lysine N-methyltransferase, H3 lysine-79 specific (Homo sapiens, UniProt Q8TEK3); assay: (§1) Inhibition of recombinant human His6-SUMO tagged DOT1L (1 to 416 residues) expressed in Escherichia coli BL21(DE3) at 50 uM using oligonucleosome as substrate pretreated for 15 mins followed by substrate addition measured after 60 mins in presence of [3H]SAM by liquid scintillation counting method relative to control
Target sequence in this assay (Q8TEK3 whole entry, looked up, the tested form may be a part): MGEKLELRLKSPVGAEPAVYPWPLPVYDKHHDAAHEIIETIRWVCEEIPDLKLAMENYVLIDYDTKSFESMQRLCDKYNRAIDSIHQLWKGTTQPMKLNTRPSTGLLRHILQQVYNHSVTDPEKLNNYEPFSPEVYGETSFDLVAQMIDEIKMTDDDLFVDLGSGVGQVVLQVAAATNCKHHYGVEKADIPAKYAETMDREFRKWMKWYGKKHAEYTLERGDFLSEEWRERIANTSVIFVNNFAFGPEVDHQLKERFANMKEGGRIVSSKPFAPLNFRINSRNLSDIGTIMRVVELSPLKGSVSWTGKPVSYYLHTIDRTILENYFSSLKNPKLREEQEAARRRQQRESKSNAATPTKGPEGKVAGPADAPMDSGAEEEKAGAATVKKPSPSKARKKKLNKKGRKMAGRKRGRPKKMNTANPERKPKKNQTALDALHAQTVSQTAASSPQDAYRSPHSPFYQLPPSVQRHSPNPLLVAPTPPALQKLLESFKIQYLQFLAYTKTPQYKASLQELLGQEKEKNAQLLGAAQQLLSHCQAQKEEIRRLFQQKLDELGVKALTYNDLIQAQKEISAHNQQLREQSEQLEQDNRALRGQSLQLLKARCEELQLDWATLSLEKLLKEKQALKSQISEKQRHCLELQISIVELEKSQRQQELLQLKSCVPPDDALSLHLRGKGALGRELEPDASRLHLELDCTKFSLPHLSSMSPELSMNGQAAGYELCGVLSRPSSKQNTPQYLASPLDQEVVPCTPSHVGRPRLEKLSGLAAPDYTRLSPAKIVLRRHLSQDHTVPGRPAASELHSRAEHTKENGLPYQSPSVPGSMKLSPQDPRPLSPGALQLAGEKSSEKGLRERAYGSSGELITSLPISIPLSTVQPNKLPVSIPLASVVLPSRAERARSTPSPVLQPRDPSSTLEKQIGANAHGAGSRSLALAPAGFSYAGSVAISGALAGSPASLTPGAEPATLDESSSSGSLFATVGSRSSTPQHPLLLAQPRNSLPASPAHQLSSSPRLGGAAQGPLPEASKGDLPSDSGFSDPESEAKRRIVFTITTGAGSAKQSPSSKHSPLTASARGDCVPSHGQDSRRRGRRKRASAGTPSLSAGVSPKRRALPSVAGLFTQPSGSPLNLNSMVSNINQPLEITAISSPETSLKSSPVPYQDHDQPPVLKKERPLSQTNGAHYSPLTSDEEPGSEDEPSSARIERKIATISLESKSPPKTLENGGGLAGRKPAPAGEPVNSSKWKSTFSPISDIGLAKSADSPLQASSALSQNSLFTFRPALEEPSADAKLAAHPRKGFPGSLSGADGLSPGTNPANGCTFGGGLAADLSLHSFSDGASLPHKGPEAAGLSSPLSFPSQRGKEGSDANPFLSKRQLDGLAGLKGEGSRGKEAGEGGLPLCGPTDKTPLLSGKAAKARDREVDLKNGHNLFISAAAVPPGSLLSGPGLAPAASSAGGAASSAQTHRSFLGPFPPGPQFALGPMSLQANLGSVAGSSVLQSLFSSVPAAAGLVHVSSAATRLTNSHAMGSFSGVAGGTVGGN

MV4-11 [9] = assay: Induction of apoptosis in human MV411 cells assessed as viable cells at 0.625 uM after 48 hrs by Annexin-V-FITC/propidium iodide staining based flow cytometric method (reference value: 88.5 to 94.5%); type: functional; settings: MV4-11, 48 h, read-out: Activity
MV4-11 [10] = assay: Antiproliferative activity against human MV411 cells after 72 hrs by Alamar blue assay; type: functional, cell-based; settings: MV4-11, 72 h
[11] = molecular target: T1, Histone-lysine N-methyltransferase, H3 lysine-79 specific; assay: Binding affinity to recombinant human His6-SUMO tagged DOT1L (1 to 416 residues) expressed in Escherichia coli BL21(DE3) by surface plasmon resonance method
Target sequence in this assay (Q8TEK3 whole entry, the tested form may be a part): as the sequence (Q8TEK3 whole entry, looked up, the tested form may be a part) above

MV4-11 [12] = assay: Induction of apoptosis in human MV411 cells assessed as late apoptotic cells at 0.3125 uM after 48 hrs by Annexin-V-FITC/propidium iodide staining based flow cytometric method (reference value: 4.38 to 4.63%); type: functional
MV4-11 [13] = assay: Induction of apoptosis in human MV411 cells assessed as late apoptotic cells at 1.25 uM after 48 hrs by Annexin-V-FITC/propidium iodide staining based flow cytometric method (reference value: 4.38 to 4.63%); type: functional
[14] = molecular target: T1, Histone-lysine N-methyltransferase, H3 lysine-79 specific; assay: as §1, with “100” for “50”
Target sequence in this assay (Q8TEK3 whole entry, looked up, the tested form may be a part): as above

MV4-11 [15] = assay: Cell cycle arrest in human MV411 cells assessed as accumulation at G2 phase at 1.25 uM after 24 hrs by propidium iodide staining based flow cytometric analysis (reference value: 4.19 to 11.88%); type: functional
MV4-11 [16] = assay: Induction of apoptosis in human MV411 cells assessed as necrotic cells at 0.3125 uM after 48 hrs by Annexin-V-FITC/propidium iodide staining based flow cytometric method (Rvb <= 0.08%); type: functional
MV4-11 [17] = assay: Induction of apoptosis in human MV411 cells assessed as early apoptotic cells at 1.25 uM after 48 hrs by Annexin-V-FITC/propidium iodide staining based flow cytometric method (reference value: 1.15 to […]); type: functional
MV4-11 [18] = assay: Induction of apoptosis in human MV411 cells assessed as necrotic cells at 1.25 uM after 48 hrs by Annexin-V-FITC/propidium iodide staining based flow cytometric method (Rvb <= 0.08%); type: functional
MV4-11 [19] = assay: Induction of apoptosis in human MV411 cells assessed as viable cells at 0.3125 uM after 48 hrs by Annexin-V-FITC/propidium iodide staining based flow cytometric method (reference value: 88.5 to 94.5%); type: functional; settings: MV4-11, 48 h, read-out: Activity
MV4-11 [20] = assay: Cell cycle arrest in human MV411 cells assessed as accumulation at G2 phase at 0.625 uM after 24 hrs by propidium iodide staining based flow cytometric analysis (reference value: 4.19 to 11.88%); type: functional
MV4-11 [21] = assay: Cell cycle arrest in human MV411 cells assessed as accumulation at G1 phase after 24 hrs by propidium iodide staining based flow cytometric analysis; type: functional
MV4-11 [22] = assay: Cell cycle arrest in human MV411 cells assessed as accumulation at S phase at 0.3125 uM after 24 hrs by propidium iodide staining based flow cytometric analysis (reference value: 30.25 to 47.5%); type: functional
MV4-11 [23] = assay: Induction of apoptosis in human MV411 cells assessed as early apoptotic cells at 0.3125 uM after 48 hrs by Annexin-V-FITC/propidium iodide staining based flow cytometric method (reference value: 1.15 to […]); type: functional
MV4-11 [24] = assay: Cell cycle arrest in human MV411 cells assessed as accumulation at G1 phase at 0.625 uM after 24 hrs by propidium iodide staining based flow cytometric analysis (reference value: 40.62 to 65.56%); type: functional
[25] = molecular target: T1, Histone-lysine N-methyltransferase, H3 lysine-79 specific; assay: Inhibition of recombinant human His6-SUMO tagged DOT1L (1 to 416 residues) expressed in Escherichia coli BL21(DE3) using oligonucleosome as substrate pretreated for 15 mins followed by substrate addition measured after 60 mins in presence of [3H]SAM by liquid scintillation counting method
Target sequence in this assay (Q8TEK3 whole entry, the tested form may be a part): as the sequence (Q8TEK3 whole entry, looked up, the tested form may be a part) above

[26] = molecular target: T1, Histone-lysine N-methyltransferase, H3 lysine-79 specific; assay: as §1, with “25” for “50”
Target sequence in this assay (Q8TEK3 whole entry, looked up, the tested form may be a part): as above

MV4-11 [27] = assay: Induction of apoptosis in human MV411 cells assessed as early apoptotic cells at 0.625 uM after 48 hrs by Annexin-V-FITC/propidium iodide staining based flow cytometric method (reference value: 1.15 to […]); type: functional
MV4-11 [28] = assay: Induction of apoptosis in human MV411 cells assessed as necrotic cells at 0.625 uM after 48 hrs by Annexin-V-FITC/propidium iodide staining based flow cytometric method (Rvb <= 0.08%); type: functional

COc1ccccc1-c1nnc2sc(/C=C/c3ccco3)nn12
Activity (MV4-11 [1]): 32.19% | Activity (MV4-11 [2]): 16.17% | Activity (MV4-11 [3]): 46.31% | Activity (MV4-11 [4]): 58.01% | Activity (MV4-11 [5]): 18.51% | Activity (MV4-11 [6]): 35.3% | viability at 1.25 µM (MV4-11 [7]): 9.46% | inhibition [8]: 75% | viability at 0.625 µM (MV4-11 [9]): 30.4% | IC50 (MV4-11 [10]): 1.07 µM | Kd [11]: 7.08 µM | Activity (MV4-11 [12]): 12% | Activity (MV4-11 [13]): 45.5% | inhibition [14]: 78% | Activity (MV4-11 [15]): 23.18% | Activity (MV4-11 [16]): 0.72% | Activity (MV4-11 [17]): 44.1% | Activity (MV4-11 [18]): 0.91% | viability at 0.3125 µM (MV4-11 [19]): 73.6% | Activity (MV4-11 [20]): 10.59% | Activity (MV4-11 [21]): Dose-dependent effect | Activity (MV4-11 [22]): 37.51% | Activity (MV4-11 [23]): 13.7% | Activity (MV4-11 [24]): 57.22% | IC50 [25]: 9.7 µM | inhibition [26]: 62% | Activity (MV4-11 [27]): 33.2% | Activity (MV4-11 [28]): 1.11%
